PMC5972072 (Bioorganic chemistry, 2018)
“Also recorded” adds a separate entry of the source.

Key:
HCT116 and HeLa cells = HCT116 and HeLa cells ref 13; cited from earlier work
HeLa cells = assay: Antiproliferative activity, CellTiter-Blue viability; type: cell-based; details: 72 h; for antiproliferative activity (in words): 10 μM; for IC50: Homo sapiens, read-out: IC50 against HeLa
HCT116 cells [1] = assay: as above; type: cell-based; details: for antiproliferative activity (in words): HCT116, 10 μM, 72 h; for IC50: Homo sapiens, HCT-116, 72 h, read-out: IC50 against HCT116
haspin kinase [2] = molecular target: T1, haspin kinase (Homo sapiens, UniProt Q8TF76); assay: Haspin kinase activity, ADP-Glo kinase assay, single concentration; type: biochemical; details: for haspin inhibition (in words): 100 nM compound, 3 h, Figure 2; for inhibition at 0.1 µM: read-out: inhibition of haspin's enzymatic activity
T1 sequence (Q8TF76 1-798): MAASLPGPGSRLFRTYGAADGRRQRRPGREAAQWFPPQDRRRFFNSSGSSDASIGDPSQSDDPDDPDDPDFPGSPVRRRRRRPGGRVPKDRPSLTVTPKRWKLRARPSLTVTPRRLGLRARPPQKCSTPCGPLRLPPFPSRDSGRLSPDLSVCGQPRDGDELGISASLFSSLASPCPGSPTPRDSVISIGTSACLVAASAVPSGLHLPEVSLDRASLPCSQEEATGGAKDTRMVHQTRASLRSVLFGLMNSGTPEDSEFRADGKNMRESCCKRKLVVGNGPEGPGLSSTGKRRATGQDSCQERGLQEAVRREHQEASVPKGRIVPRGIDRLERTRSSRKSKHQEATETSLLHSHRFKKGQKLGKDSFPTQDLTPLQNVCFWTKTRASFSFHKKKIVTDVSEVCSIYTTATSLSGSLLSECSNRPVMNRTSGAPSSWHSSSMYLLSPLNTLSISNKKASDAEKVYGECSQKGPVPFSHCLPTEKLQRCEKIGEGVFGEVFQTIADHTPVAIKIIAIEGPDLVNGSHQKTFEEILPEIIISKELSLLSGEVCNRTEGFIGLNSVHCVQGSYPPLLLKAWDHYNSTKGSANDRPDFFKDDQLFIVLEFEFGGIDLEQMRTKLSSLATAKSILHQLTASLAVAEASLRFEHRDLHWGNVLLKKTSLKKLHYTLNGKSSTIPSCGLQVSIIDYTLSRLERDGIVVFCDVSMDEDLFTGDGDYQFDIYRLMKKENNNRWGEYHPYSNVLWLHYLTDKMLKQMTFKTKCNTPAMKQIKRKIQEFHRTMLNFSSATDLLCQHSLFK

A375 cells = assay: Antiproliferative activity, CellTiter-Blue viability; type: cell-based; details: A375, 10 μM, 72 h
haspin kinase [3] = molecular target: T1, haspin kinase; assay: Haspin dose-response
[4] = tested on: caspase 3/7 in HCT116 cells; assay: Caspase 3/7 fluorescence assay; details: HCT116, after 72 hours, normalized to DMSO
HCT116 cells [5] = assay: Cell cycle analysis, propidium iodide staining with flow cytometry; type: cell-based

| Structure (SMILES) | antiproliferative activity (in words) (HeLa cells) | antiproliferative activity (in words) (HCT116 cells [1]) | haspin inhibition (in words) (haspin kinase [2]) | antiproliferative activity (in words) (A375 cells) | further results |
| --- | --- | --- | --- | --- | --- |
| CCCNc1ccc2ncc(-c3ccc4[nH]ncc4c3)n2n1 [CHR-6494] | – | – | – | – | apoptosis (in words) (HCT116 and HeLa cells): apoptosis; cell cycle arrest (in words) (HCT116 and HeLa cells): G2/M cell cycle arrest |
| Oc1ccc(-c2nc3ccc4[nH]ncc4c3c3c2CCCC3)cc1 [Compound 1, 4-(8,9,10,11-Tetrahydro-3H-pyrazolo[4,3-a]phenanthridin-7-yl)phenol] | did not have good anticancer activities | did not have good anticancer activities | good haspin inhibitor | did not have good anticancer activities | – |
| N#Cc1n[nH]c2ccc3nc(-c4ccc(O)cc4)c4c(c3c12)CCCC4 [Compound 7, 7-(4-Hydroxyphenyl)-8,9,10,11-tetrahydro-3H-pyrazolo[4,3-a]phenanthridine-1-carbonitrile] | performed poorly | performed poorly | no inhibitory activity; also recorded: did not inhibit haspin; also recorded: poor haspin inhibitors | performed poorly | – |
| Oc1ccc(-c2nc3ccc4[nH]ncc4c3c3c2CCCC3)cc1F [Compound 8, 2-Fluoro-4-(8,9,10,11-tetrahydro-3H-pyrazolo[4,3-a]phenanthridin-7-yl)phenol] | – | – | less active against haspin than HSD972 | – | – |
| Oc1cc(F)c(-c2nc3ccc4[nH]ncc4c3c3c2CCCC3)cc1F [Compound 10, 2,5-Difluoro-4-(8,9,10,11-tetrahydro-3H-pyrazolo[4,3-a]phenanthridin-7-yl)phenol] | – | – | decreased potency | – | – |
| Oc1ccc(-c2nc3ccc4[nH]ncc4c3c3c2CCCC3)cn1 [Compound 12, 5-(8,9,10,11-Tetrahydro-3H-pyrazolo[4,3-a]phenanthridin-7-yl)pyridin-2-ol] | moderate antiproliferative activity | moderate antiproliferative activity | poor haspin inhibitor | moderate antiproliferative activity | – |
| Nc1ccc(-c2nc3ccc4[nH]ncc4c3c3c2CCCC3)cn1 [Compound 17, 5-(8,9,10,11-Tetrahydro-3H-pyrazolo[4,3-a]phenanthridin-7-yl)pyridin-2-amine] | – | – | did not affect haspin inhibition | – | IC50 (haspin kinase [3]): 45 nM; inhibition at 0.1 µM (haspin kinase [2]): > 90% |
| Nc1ncc(-c2nc3ccc4[nH]ncc4c3c3c2CCCC3)cn1 [Compound 18, 5-(8,9,10,11-Tetrahydro-3H-pyrazolo[4,3-a]phenanthridin-7-yl)pyrimidin-2-amine] | – | – | slightly less active against haspin | – | – |
| Oc1ccc(-c2nc3c(ccc4cn[nH]c43)c3c2CCCC3)cc1 [Compound 19, 4-(6,7,8,9-Tetrahydro-3H-pyrazolo[4,3-c]phenanthridin-5-yl)phenol] | performed poorly | performed poorly | not as active against haspin than compound 1; also recorded: poor haspin inhibitors | performed poorly | – |
| Oc1ccc(-c2nc3ccc4cn[nH]c4c3c3c2CCCC3)cc1 [Compound 20, 4-(8,9,10,11-Tetrahydro-1H-pyrazolo[3,4-a]phenanthridin-7-yl)phenol] | – | – | not as active against haspin than compound 1 | – | – |
| Oc1ccc(-c2nc3ccc4[nH]ncc4c3c3c2CCCC3)c(F)c1F [Compound 21, 2,3-Difluoro-4-(8,9,10,11-tetrahydro-3H-pyrazolo[4,3-a]phenanthridin-7-yl)phenol] | – | – | decreased potency | – | – |
| Nc1ccc(-c2nc3ccc4[nH]ncc4c3c3c2CCCC3)cc1 [HSD929, 4-(8,9,10,11-Tetrahydro-3H-pyrazolo[4,3-a]phenanthridin-7-yl)aniline] | potent antiproliferative activities | potent antiproliferative activities | potent inhibitors of haspin | – | IC50 (HeLa cells): 3600 nM; IC50 (haspin kinase [3]): 61 nM; IC50 (HCT116 cells [1]): 1680 nM; haspin inhibition (in words) (haspin kinase [2]; listed as 16): did not affect haspin inhibition; inhibition at 0.1 µM (haspin kinase [2]): > 90% |
| Oc1ccc(-c2nc3ccc4[nH]ncc4c3c3c2CCCC3)c(F)c1 [HSD972, 3-Fluoro-4-(8,9,10,11-tetrahydro-3H-pyrazolo[4,3-a]phenanthridin-7-yl)phenol] | potent antiproliferative activities | potent antiproliferative activities | – | – | IC50 (HeLa cells): 4800 nM; caspase 3/7 activity (in words) [4]: increased the activity of caspase 3/7; cells in G2 phase (HCT116 cells [5]; HCT116, 13.5 μM (5X IC50), 24 h, DMSO 16.2%): 59.3%; effect on cell cycle distribution (in words) (HCT116 cells [5]; HCT116, 5X IC50, 24 h, compared to DMSO): population of cells in the G2/M phase was higher; IC50 (HCT116 cells [1]): 2700 nM; inhibition at 0.1 µM (haspin kinase [2]): > 90% |
